From ChEMBL document CHEMBL1201862, “PubChem BioAssay data set” (2004)
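These data come from cells grown in 96-well plates and exposed to compound for 48 hours at five concentrations. GI50 marks 50% less growth.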 Calls of active or inactive are those of the source. Rule as the data show it: active = GI50 up to about 1.1 µM and inactive = higher.

Experiments:
Assay in all cases: NCI-60 cell line screen, 48 h
SF-539 = system: SF-539
RXF 393 = system: RXF 393
Malme-3M = system: Malme-3M
K562 = system: K562
NCI-H226 = system: NCI-H226
PC-3 = system: PC-3
786-0 = system: 786-0
OVCAR-3 = system: OVCAR-3
EKVX = system: EKVX
SNB-75 = system: SNB-75
SK-MEL-5 = system: SK-MEL-5
HL-60 = system: HL-60
CAKI-1 = system: CAKI-1
NCI-H23 = system: NCI-H23
TK-10 = system: TK-10
HOP-92 = system: HOP-92
MOLT-4 = system: MOLT-4
HT-29 = system: HT-29
RPMI-8226 = system: RPMI-8226

**Q.** With `Cc1cc2c(cc1Cl)SC(NNc1cnc3ccccc3n1)=NS2(=O)=O` as the compound, how does the GI50 (SF-539) read?
**A.** 29.4 µM (inactive)

**Q.** And the GI50 (RXF 393)?
**A.** 40.3 µM (inactive)

**Q.** What about the GI50 (Malme-3M) of the same compound?
**A.** 22.6 µM (inactive)

**Q.** What about the GI50 (K562) of the same compound?
**A.** 73.3 µM (inactive)

**Q.** What about the GI50 (NCI-H226) of the same compound?
**A.** 44.4 µM (inactive)

**Q.** What about the GI50 (PC-3) of the same compound?
**A.** 35.4 µM (inactive)

**Q.** What about the GI50 (786-0) of the same compound?
**A.** 38.3 µM (inactive)

**Q.** What about the GI50 (OVCAR-3) of the same compound?
**A.** 47.4 µM (inactive)

**Q.** And the GI50 (EKVX)?
**A.** > 100 µM (inactive)

**Q.** What about the GI50 (SNB-75) of the same compound?
**A.** 72.3 µM (inactive)

**Q.** And the GI50 (SK-MEL-5)?
**A.** 66.7 µM (inactive)

**Q.** And the GI50 (HL-60)?
**A.** > 100 µM (inactive)

**Q.** What about the GI50 (CAKI-1) of the same compound?
**A.** > 100 µM (inactive)

**Q.** And the GI50 (NCI-H23)?
**A.** > 100 µM (inactive)

**Q.** And the GI50 (TK-10)?
**A.** > 100 µM (inactive)

**Q.** And the GI50 (HOP-92)?
**A.** 35.7 µM (inactive)

**Q.** And the GI50 (MOLT-4)?
**A.** 26.6 µM (inactive)

**Q.** What about the GI50 (HT-29) of the same compound?
**A.** > 100 µM (inactive)

**Q.** Which GI50 (SF-539) does the source give for `N#CC(C#N)=C1SCC(=O)CS1` here?
**A.** > 100 µM (inactive)

**Q.** What about the GI50 (RXF 393) of the same compound?
**A.** > 100 µM (inactive)

**Q.** And the GI50 (Malme-3M)?
**A.** > 100 µM (inactive)

**Q.** And the GI50 (K562)?
**A.** > 100 µM (inactive)

**Q.** What about the GI50 (NCI-H226) of the same compound?
**A.** > 100 µM (inactive)

**Q.** And the GI50 (786-0)?
**A.** > 100 µM (inactive)

**Q.** What about the GI50 (OVCAR-3) of the same compound?
**A.** > 100 µM (inactive)

**Q.** What about the GI50 (EKVX) of the same compound?
**A.** > 100 µM (inactive)

**Q.** And the GI50 (SNB-75)?
**A.** 89.1 µM (inactive)

**Q.** What about the GI50 (SK-MEL-5) of the same compound?
**A.** > 100 µM (inactive)

**Q.** And the GI50 (HL-60)?
**A.** > 100 µM (inactive)

**Q.** And the GI50 (CAKI-1)?
**A.** > 100 µM (inactive)

**Q.** And the GI50 (NCI-H23)?
**A.** > 100 µM (inactive)

**Q.** And the GI50 (TK-10)?
**A.** > 100 µM (inactive)

**Q.** What about the GI50 (RPMI-8226) of the same compound?
**A.** > 100 µM (inactive)

**Q.** What about the GI50 (HOP-92) of the same compound?
**A.** > 100 µM (inactive)

**Q.** And the GI50 (MOLT-4)?
**A.** > 100 µM (inactive)

**Q.** What about the GI50 (HT-29) of the same compound?
**A.** > 100 µM (inactive)

**Q.** For `CN(C)CCNc1ccc(NCC[N+](C)(C)Cc2ccc([N+](=O)[O-])cc2)c2c1C(=O)c1c(O)ccc(O)c1C2=O`, which GI50 (K562) is on record?
**A.** 6.08 µM (inactive)

**Q.** What about the GI50 (NCI-H226) of the same compound?
**A.** 15.3 µM (inactive)

**Q.** And the GI50 (PC-3)?
**A.** 56 µM (inactive)

**Q.** What about the GI50 (786-0) of the same compound?
**A.** 18.2 µM (inactive)

**Q.** What about the GI50 (OVCAR-3) of the same compound?
**A.** > 100 µM (inactive)

**Q.** And the GI50 (EKVX)?
**A.** > 100 µM (inactive)

**Q.** And the GI50 (SNB-75)?
**A.** 19.6 µM (inactive)

**Q.** And the GI50 (SK-MEL-5)?
**A.** 10.8 µM (inactive)

**Q.** What about the GI50 (HL-60) of the same compound?
**A.** 54.2 µM (inactive)

**Q.** And the GI50 (CAKI-1)?
**A.** 12.2 µM (inactive)

**Q.** What about the GI50 (NCI-H23) of the same compound?
**A.** 54 µM (inactive)

**Q.** What about the GI50 (RPMI-8226) of the same compound?
**A.** 7.57 µM (inactive)

**Q.** What about the GI50 (MOLT-4) of the same compound?
**A.** 0.509 µM (active)

**Q.** And the GI50 (HT-29)?
**A.** 25.8 µM (inactive)

**Q.** What does the source list for `CC(=O)Oc1ccccc1C(=O)C1c2cccc(O)c2C(=O)c2c(O)cccc21`?
**A.** GI50 (SF-539): 0.46 µM (active); GI50 (RXF 393): 0.423 µM (active); GI50 (Malme-3M): 1.95 µM (inactive); GI50 (K562): 0.366 µM (active); GI50 (NCI-H226): 1.63 µM (inactive); GI50 (786-0): 1.67 µM (inactive); GI50 (OVCAR-3): 0.593 µM (active); GI50 (EKVX): 2.18 µM (inactive); GI50 (SNB-75): 0.695 µM (active); GI50 (SK-MEL-5): 1.05 µM (active); GI50 (HL-60): 0.222 µM (active); GI50 (CAKI-1): 1.95 µM (inactive); GI50 (NCI-H23): 1.09 µM (active); GI50 (TK-10): 3.65 µM (inactive); GI50 (RPMI-8226): 0.374 µM (active); GI50 (HOP-92): 1.18 µM (inactive); GI50 (MOLT-4): 1.46 µM (inactive); GI50 (HT-29): 2.59 µM (inactive)

**Q.** For `CCCC(O)c1cn(-c2cccc(S(=O)(=O)O)c2)nn1` (stereo not drawn), which GI50 (SF-539) is on record?
**A.** > 100 µM (inactive)

**Q.** And the GI50 (RXF 393)?
**A.** > 100 µM (inactive)

**Q.** And the GI50 (Malme-3M)?
**A.** > 100 µM (inactive)

**Q.** What about the GI50 (K562) of the same compound?
**A.** > 100 µM (inactive)

**Q.** What about the GI50 (NCI-H226) of the same compound?
**A.** > 100 µM (inactive)

**Q.** What about the GI50 (786-0) of the same compound?
**A.** > 100 µM (inactive)

**Q.** And the GI50 (OVCAR-3)?
**A.** > 100 µM (inactive)

**Q.** What about the GI50 (EKVX) of the same compound?
**A.** > 100 µM (inactive)

**Q.** And the GI50 (SNB-75)?
**A.** > 100 µM (inactive)

**Q.** What about the GI50 (SK-MEL-5) of the same compound?
**A.** > 100 µM (inactive)

**Q.** And the GI50 (HL-60)?
**A.** > 100 µM (inactive)

**Q.** And the GI50 (CAKI-1)?
**A.** > 100 µM (inactive)

**Q.** And the GI50 (NCI-H23)?
**A.** > 100 µM (inactive)

**Q.** What about the GI50 (TK-10) of the same compound?
**A.** > 100 µM (inactive)

**Q.** And the GI50 (RPMI-8226)?
**A.** > 100 µM (inactive)

**Q.** What about the GI50 (HOP-92) of the same compound?
**A.** > 100 µM (inactive)

**Q.** What about the GI50 (MOLT-4) of the same compound?
**A.** > 100 µM (inactive)

**Q.** What about the GI50 (HT-29) of the same compound?
**A.** > 100 µM (inactive)

**Q.** How did the GI50 (SF-539) turn out when `[N-]=[N+]=NC(c1cn(C2CC(O)C(CO)O2)c(=O)[nH]c1=O)C(Br)Br` (stereo not drawn) was run?
**A.** > 100 µM (inactive)

**Q.** And the GI50 (RXF 393)?
**A.** > 100 µM (inactive)

**Q.** What about the GI50 (Malme-3M) of the same compound?
**A.** > 100 µM (inactive)

**Q.** What about the GI50 (K562) of the same compound?
**A.** > 100 µM (inactive)

**Q.** And the GI50 (NCI-H226)?
**A.** > 100 µM (inactive)

**Q.** And the GI50 (786-0)?
**A.** > 100 µM (inactive)

**Q.** What about the GI50 (OVCAR-3) of the same compound?
**A.** > 100 µM (inactive)

**Q.** And the GI50 (EKVX)?
**A.** > 100 µM (inactive)

**Q.** What about the GI50 (SNB-75) of the same compound?
**A.** > 100 µM (inactive)

**Q.** What about the GI50 (SK-MEL-5) of the same compound?
**A.** > 100 µM (inactive)

**Q.** And the GI50 (HL-60)?
**A.** > 100 µM (inactive)

**Q.** And the GI50 (CAKI-1)?
**A.** > 100 µM (inactive)

**Q.** What about the GI50 (NCI-H23) of the same compound?
**A.** > 100 µM (inactive)

**Q.** And the GI50 (TK-10)?
**A.** > 100 µM (inactive)

**Q.** And the GI50 (RPMI-8226)?
**A.** > 100 µM (inactive)

**Q.** And the GI50 (HOP-92)?
**A.** > 100 µM (inactive)

**Q.** And the GI50 (MOLT-4)?
**A.** > 100 µM (inactive)

**Q.** What about the GI50 (HT-29) of the same compound?
**A.** > 100 µM (inactive)

**Q.** `CCOP(=O)(O)CC1OC(CO)C(O)C1O` (stereo not drawn) was tested. Which GI50 (SF-539) did it give?
**A.** > 100 µM (inactive)

**Q.** And the GI50 (RXF 393)?
**A.** > 100 µM (inactive)

**Q.** And the GI50 (Malme-3M)?
**A.** > 100 µM (inactive)

**Q.** What about the GI50 (K562) of the same compound?
**A.** > 100 µM (inactive)

**Q.** And the GI50 (NCI-H226)?
**A.** > 100 µM (inactive)

**Q.** And the GI50 (PC-3)?
**A.** > 100 µM (inactive)

**Q.** And the GI50 (786-0)?
**A.** > 100 µM (inactive)

**Q.** And the GI50 (OVCAR-3)?
**A.** > 100 µM (inactive)

**Q.** What about the GI50 (EKVX) of the same compound?
**A.** > 100 µM (inactive)

**Q.** What about the GI50 (SNB-75) of the same compound?
**A.** > 100 µM (inactive)

**Q.** And the GI50 (SK-MEL-5)?
**A.** > 100 µM (inactive)

**Q.** What about the GI50 (NCI-H23) of the same compound?
**A.** > 100 µM (inactive)

**Q.** What about the GI50 (TK-10) of the same compound?
**A.** > 100 µM (inactive)

**Q.** What about the GI50 (HOP-92) of the same compound?
**A.** > 100 µM (inactive)

**Q.** And the GI50 (MOLT-4)?
**A.** > 100 µM (inactive)

**Q.** What about the GI50 (HT-29) of the same compound?
**A.** > 100 µM (inactive)

**Q.** What does the source list for `CC(C)(C)NNC(=O)/C(=C/c1ccc([N+](=O)[O-])cc1)NC(=O)c1ccccc1`?
**A.** GI50 (SF-539): > 100 µM (inactive); GI50 (RXF 393): > 100 µM (inactive); GI50 (Malme-3M): > 100 µM (inactive); GI50 (K562): > 100 µM (inactive); GI50 (NCI-H226): 24.2 µM (inactive); GI50 (786-0): 48.5 µM (inactive); GI50 (OVCAR-3): > 100 µM (inactive); GI50 (EKVX): > 100 µM (inactive); GI50 (SNB-75): > 100 µM (inactive); GI50 (SK-MEL-5): > 100 µM (inactive); GI50 (HL-60): 44.8 µM (inactive); GI50 (CAKI-1): > 100 µM (inactive); GI50 (NCI-H23): > 100 µM (inactive); GI50 (TK-10): > 100 µM (inactive); GI50 (RPMI-8226): 45 µM (inactive); GI50 (HOP-92): > 100 µM (inactive); GI50 (MOLT-4): 41.3 µM (inactive); GI50 (HT-29): > 100 µM (inactive)
